Reference: patent publication US20180028617A1, “METHODS OF TREATING MILD BRAIN INJURY AND POST-TRAUMATIC STRESS DISORDER” (The Regents of the University of California, priority 2015, published 2018)

Experiments:
[1] = test system: blood brain barrier (BBB) vascular permeability; Aquaporin 4 (AQP-4); conditions: cited from earlier work
[2] = test system: neutrophil oxidative burst in leukocytes isolated from brain tissue; assay: Oxidative burst (ROS, DHR 123 fluorescence by flow cytometry) in leukocytes isolated from brain tissue after mild brain injury by controlled cortical impact; format: in vivo, C57/B6 mice; conditions: for Oxidative burst in inflammatory cells following mBI (flow cytometry peak shift, FIG. 2): subcutaneous ghrelin, compared to untreated mBI, n=3 animals in each group
Experimental: FIG. 1 depicts principle of assaying oxidative burst within inflammatory cells. Dihydrorhodamine 123 (DHR 123) diffuses across the cell membrane. When it encounters reactive oxygen species (ROS), DHR 123 is oxidized and fluoresces green. The fluorescence is then measured and presented as arbitrary fluorescence unit (AFU), wherein higher intensity means greater oxidative burst and, therefore greater concentration of amount of ROS (See Chen, et al., Measurement of oxidative burst in neutrophils,” Methods Mol Biol., 844: 115-124 (2012); which is incorporated herein by reference in its entirety).
Ghrelin administration reduces oxidative burst in inflammatory cells following mBI. Since no well-accepted animal model exists for concussions, a very small cerebral lesion that closely mimics mBI is used as a model of mBI. C57/B6 mice anesthetized with 5% isoflurane in oxygen (1.7 L/min) are given 0.3 mg/kg buprenorphine subcutaneously for analgesia prior to infliction of the mild brain injury. Anesthesia is assessed by paw pinch reflex. After creating a burr hole through the dura with a dental drill, a lesion using a controlled cortical impactor (CCI) is used to create injury 1 mm lateral and posterior to the bregma (5.0 mm/sec at a depth of 1.0 mm).
Animals are separated into three treatment groups: 1) Sham, 2) mBI, and 3) mBI plus ghrelin. A variety of doses can be tested depending upon the particular ghrelin. Ghrelin can be obtained for example from Phoenix Pharmaceuticals, Inc. (Burlingame, Calif.). For example, 1 to 50 μg at one or more time points. As one example, treatment with subcutaneous ghrelin: 1 dose of 10 μg following mBI and additional dose 10 μg 1 hour after. Brain tissue is harvested at 2-8 hours, preferably about 6 hours post-injury. […] The fluorescence is then measured and presented as arbitrary fluorescence unit (AFU), wherein higher intensity means greater oxidative burst and, therefore greater concentration or amount of ROS. […] Oxidative burst, which is a marker for ROS, can be measured by flow cytometry (e.g., FL1 channel with 488-nm laser).

Gly-Ser-Ser-Phe-Leu-Ser-Pro-Glu-His-Gln-Arg-Val-Gln-Gln-Arg-Lys-Glu-Ser-Lys-Lys-Pro-Pro-Ala-Lys-Leu-Gln-Pro-Arg (GSSFLSPEHQRVQQRKESKKPPAKLQPR; printed: Gly-Ser-Ser-Phe-Leu-Ser-Pro-Glu-His-Gln-Arg-Val-Gln-Gln-Arg-Lys-Glu-Ser-Lys-Lys-Pro-Pro-Ala-Lys-Leu-Gln-Pro-Arg) [ghrelin, 28-amino acid peptide neuroendocrine hormone, endogenous ligand for growth hormone secretagogue receptor; can include octanoyl acylation; obtainable from Phoenix Pharmaceuticals]
Post-TBI up-regulation of Aquaporin 4 (AQP-4) [1]: prevents post-TBI up-regulation of Aquaporin 4
Oxidative burst of ipsilateral whole brain following mild BI (mean fluorescence intensity) ([2]; mild BI + ghrelin (2 doses), subcutaneous 10 μg following mBI and 10 μg 1 hour after, vs 7963±2900 mild BI alone and 4624±1858 sham, p-value of 0.048, n=5): 3257 AFU
Oxidative burst in inflammatory cells following mBI (flow cytometry peak shift, FIG. 2) [2]: lower oxidative burst
Oxidative burst in inflammatory cells following mBI (flow cytometry peak shift, FIG. 2) ([2]; listed as Ghrelin): reduced the oxidative burst
